Target: T1, Human CGRP1 Receptor (Homo sapiens, UniProt O60894+Q16602)
T1 construct: endogenous in cells; host or cells: SK-N-MC cells (membrane homogenate)
Experiment: CGRP Binding Assay ([125I]-CGRP radioligand displacement, SK-N-MC membrane homogenate)
Settings: [125I]-CGRP displacement, SK-N-MC homogenate, room temperature 2 h; read-out: Human CGRP1 Receptor IC50
Description: Tissue Culture. SK-N-MC cells were grown at 37° C. in 5% CO2 as a monolayer in medium consisting of MEM with Earle's salts and L-glutamine (Gibco) supplemented with 10% fetal bovine serum (Gibco).
Cell Pellets. […] The cells were transferred from plates to polypropylene tubes (16×100 mm) and homogenized using a polytron. Homogenates were centrifuged at 32,000×g for 30 min. The pellets were resuspended in cold hypotonic lysis buffer with 0.1% mammalian protease inhibitor cocktail (Sigma) and assayed for protein concentration. The SK-N-MC homogenate was then aliquoted and stored at −80° C. until needed.
Radioligand Binding Assay. The compounds of invention were solubilized and carried through serial dilutions using 100% DMSO. Aliquots from the compound serial dilutions were further diluted 25 fold into assay buffer (50 mM Tris-Cl pH 7.5, 5 mM MgCl2, 0.005% Triton X-100) and transferred (volume 50 μl) into 96 well assay plates. […] SK-N-MC pellets were thawed, diluted in assay buffer with fresh 0.1% mammalian protease inhibitor cocktail (Sigma), and homogenized again. SK-N-MC homogenate (5 μg/well) was added in a volume of 100 μl. The assay plates were then incubated at room temperature for 2 h. Assays were stopped by addition of excess cold wash buffer (20 mM Tris-Cl pH 7.5, 0.1% BSA) immediately followed by filtration over glass fiber filters (Whatman GF/B) previously soaked in 0.5% PEI. Non-specific binding was defined with 1 μM beta-CGRP. Protein bound radioactivity was determined using a gamma or scintillation counter.

T1 sequence (Q16602 23-461): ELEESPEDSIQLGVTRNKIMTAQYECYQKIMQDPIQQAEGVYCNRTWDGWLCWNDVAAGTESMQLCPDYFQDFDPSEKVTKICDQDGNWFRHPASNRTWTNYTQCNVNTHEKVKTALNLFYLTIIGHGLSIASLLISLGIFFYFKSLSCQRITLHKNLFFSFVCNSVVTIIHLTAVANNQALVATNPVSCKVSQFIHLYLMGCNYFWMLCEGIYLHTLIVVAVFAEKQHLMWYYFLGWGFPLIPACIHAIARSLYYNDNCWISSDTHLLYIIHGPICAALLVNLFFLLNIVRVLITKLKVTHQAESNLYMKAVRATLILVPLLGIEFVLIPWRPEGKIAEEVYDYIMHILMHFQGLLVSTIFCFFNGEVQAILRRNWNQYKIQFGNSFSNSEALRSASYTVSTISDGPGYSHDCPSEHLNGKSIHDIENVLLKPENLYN
T1 sequence (O60894 27-148): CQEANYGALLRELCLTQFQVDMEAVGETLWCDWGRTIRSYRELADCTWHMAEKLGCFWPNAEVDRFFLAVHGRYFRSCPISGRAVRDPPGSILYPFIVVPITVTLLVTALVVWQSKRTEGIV

SMILES	IC50 [nM]
Cc1cn(Cc2cccc(F)c2)c(C(Cc2cc(C)c3[nH]ncc3c2)NC(=O)N2CCC(N3Cc4ccccc4NC3=O)CC2)n1 (racemic) [Example 89, (±)-N-(1-(1-(3-Fluorobenzyl)-4-methyl-1H-imidazol-2-yl)-2-(7-methyl-1H-indazol-5-yl)ethyl)-4-(2-oxo-1,2-dihydroquinazolin-3(4H)-yl)piperidine-1-carboxamide]	< 10
CC1=CC(CC(CC(=O)N2CCC(N3Cc4ccccc4NC3=O)CC2)c2nccn2Cc2ccncc2)=CC2C=NNC12 (stereo not drawn) [Example 97, 3-(1-(4-(7-Methyl-3a,7a-dihydro-1H-indazol-5-yl)-3-(1-(pyridin-4-ylmethyl)-1H-imidazol-2-yl)butanoyl)piperidin-4-yl)-3,4-dihydroquinazolin-2(1H)-one]	< 10
Cc1cc(CC(OC(=O)N2CCC(N3Cc4ccccc4NC3=O)CC2)c2cc(C(=O)N3CCCCC3)ccn2)cc2cn[nH]c12 (racemic) [Example 49, (±)-2-(7-Methyl-1H-indazol-5-yl)-1-(4-(piperidine-1-carbonyl)pyridin-2-yl)ethyl 4-(2-oxo-1,2-dihydroquinazolin-3(4H)-yl)piperidine-1-carboxylate]	< 10
CCc1cc(CC(NC(=O)N2CCC(N3Cc4ccccc4NC3=O)CC2)c2nnnn2CC(=O)c2ccccc2)cc2c(C)n[nH]c12 (racemic) [Example 21, (±)-4-(2-Oxo-1,4-dihydro-2H-quinazolin-3-yl)-piperidine-1-carboxylicacid [2-(7-ethyl-3-methyl-1H-indazol-5-yl)-1-[1-(2-oxo-2-phenyl-ethyl)-1H-tetrazol-5-yl)-ethyl]-amide]	10 to 100
CCOC(=O)c1noc([C@@H](Cc2cc(C)c3[nH]ncc3c2)OC(=O)N2CCC(c3cc4ccccc4[nH]c3=O)CC2)n1 [Example 103, (R)-1-(3-(Ethoxycarbonyl)-1,2,4-oxadiazol-5-yl)-2-(7-methyl-1H-indazol-5-yl)ethyl 4-(2-oxo-1,2-dihydroquinolin-3-yl)piperidine-1-carboxylate]	10 to 100
Cc1noc(C(CC(=O)N2CCC(N3Cc4ccccc4NC3=O)CC2)Cc2cc(C)c3[nH]ncc3c2)n1 (racemic) [Example 5, (±)-3-{1-[4-(7-Methyl-1H-indazol-5-yl)-3-(3-methyl-[1,2,4]oxadiazol-5-yl)-butyryl]-piperidin-4-yl}-3,4-dihydro-1H-quinazolin-2-one]	10 to 100
Cc1cc(CC(OC(=O)N2CCC(N3Cc4cccc(F)c4NC3=O)CC2)c2cccc(C#N)n2)cc2cn[nH]c12 (racemic) [Example 45, (±)-1-(6-Cyanopyridin-2-yl)-2-(7-methyl-1H-indazol-5-yl)ethyl 4-(8-fluoro-2-oxo-1,2-dihydroquinazolin-3(4H)-yl)piperidine-1-carboxylate]	< 10
Cc1cc(CC(NC(=O)N2CCC(N3Cc4cccc(F)c4NC3=O)CC2)c2nnnn2CC2CCNCC2)cc2cn[nH]c12 (racemic) [Example 81, (±)-4-(8-Fluoro-2-oxo-1,2-dihydroquinazolin-3(4H)-yl)-N-(2-[7-methyl-1H-indazol-5-yl]-1-[1-(piperidin-4-ylmethyl)-1H-tetrazol-5-yl]ethyl)piperidin-1-carboxamide]	< 10
Cc1cc(CC(OC(=O)N2CCC(N3Cc4cccc(F)c4NC3=O)CC2)c2ccccn2)cc2cn[nH]c12 (stereo not drawn) [Example 55, 2-(7-methyl-1H-indazol-5-yl)-1-(pyridin-2-yl)ethyl 4-(8-fluoro-2-oxo-1,2-dihydroquinazolin-3(4H)-yl)piperidine-1-carboxylate]	< 10
Cc1cc(CC(OC(=O)N2CCC(N3Cc4ccccc4NC3=O)CC2)c2ccc3ccccc3n2)cc2cn[nH]c12 (stereo not drawn) [Example 61, 2-(7-Methyl-1H-indazol-5-yl)-1-(quinolin-2-yl)ethyl 4-(2-oxo-1,2-dihydroquinazolin-3(4H)-yl)piperidine-1-carboxylate]	< 10
Cc1cc(CC(OC(=O)N2CCC(N3Cc4ccccc4NC3=O)CC2)c2cccc(OC(C)(C)C)n2)cc2cn[nH]c12 (racemic) [Example 41, (±)-1-(6-tert-Butoxypyridin-2-yl)-2-(7-methyl-1H-indazol-5-yl)ethyl 4-(2-oxo-1,2-dihydroquinazolin-3(4H)-yl)piperidine-1-carboxylate]	100 to 1000
Cc1cc(CC(OC(=O)N2CCC(N3Cc4ccccc4NC3=O)CC2)c2cccc(=O)[nH]2)cc2cn[nH]c12 (racemic) [Example 42, (±)-2-(7-Methyl-1H-indazol-5-yl)-1-(6-oxo-1,6-dihydropyridin-2-yl)ethyl 4-(2-oxo-1,2-dihydroquinazolin-3(4H)-yl)piperidine-1-carboxylate]	100 to 1000
CC1=CC(CC(CC(=O)N2CCC(N3Cc4cccc(F)c4NC3=O)CC2)c2nccn2Cc2ccc(C(C)(C)C)cc2)=CC2C=NNC12 (stereo not drawn) [Example 96, 3-(1-(3-(1-(4-tert-Butylbenzyl)-1H-imidazol-2-yl)-4-(7-methyl-3a,7a-dihydro-1H-indazol-5-yl)butanoyl)piperidin-4-yl)-8-fluoro-3,4-dihydroquinazolin-2(1H)-one]	< 10
Cc1cc(CC(NC(=O)N2CCC(N3Cc4ccccc4NC3=O)CC2)c2nccn2CCc2ccccc2)cc2cn[nH]c12 (racemic) [Example 70, (±)-N-(2-(7-Methyl-1H-indazol-5-yl)-1-(1-phenethyl-1H-imidazol-2-yl)ethyl)-4-(2-oxo-1,2-dihydroquinazolin-3(4H)-yl)piperidine-1-carboxamide]	< 10
Cc1cc(CC(OC(=O)N2CCC(N3Cc4ccccc4NC3=O)CC2)c2cc3ccccc3cn2)cc2cn[nH]c12 (stereo not drawn) [Example 53, 1-(Isoquinolin-3-yl)-2-(7-methyl-1H-indazol-5-yl)ethyl 4-(2-oxo-1,2-dihydroquinazolin-3(4H)-yl)piperidine-1-carboxylate]	< 10
Cc1cc(CC(NC(=O)N2CCC(N3Cc4ccccc4NC3=O)CC2)c2nccn2Cc2ccc(F)cc2)cc2cn[nH]c12 (racemic) [Example 72, (±)-N-(1-(1-(4-Fluorobenzyl)-1H-imidazol-2-yl)-2-(7-methyl-1H-indazol-5-yl)ethyl)-4-(2-oxo-1,2-dihydroquinazolin-3(4H)-yl)piperidine-1-carboxamide]	< 10
Cc1cc(CC(NC(=O)N2CCC(N3Cc4ccccc4NC3=O)CC2)c2nccn2Cc2ccncc2)cc2cn[nH]c12 (racemic) [Example 73, (±)-N-(2-(7-Methyl-1H-indazol-5-yl)-1-(1-(pyridin-4-ylmethyl)-1H-imidazol-2-yl)ethyl)-4-(2-oxo-1,2-dihydroquinazolin-3(4H)-yl)piperidine-1-carboxamide]	< 10
CC1=CC(CC(CC(=O)N2CCC(N3Cc4ccccc4NC3=O)CC2)c2nc3ccccc3[nH]2)=CC2C=NNC12 (stereo not drawn) [Example 98, 3-(1-(3-(1H-Benzo[d]imidazol-2-yl)-4-(7-methyl-3a,7a-dihydro-1H-indazol-5-yl)butanoyl)piperidin-4-yl)-3,4-dihydroquinazolin-2(1H)-one]	< 10
Cc1cc(C[C@@H](OC(=O)N2CCC(N3Cc4ccccc4NC3=O)CC2)c2nc(-c3ccncc3)no2)cc2cn[nH]c12 [Example 101, (R)-2-(7-Methyl-1H-indazol-5-yl)-1-(3-(pyridin-4-yl)-1,2,4-oxadiazol-5-yl)ethyl 4-(2-oxo-1,2-dihydroquinazolin-3(4H)-yl)piperidine-1-carboxylate]	10 to 100
Cc1cc(CC(NC(=O)N2CCC(N3Cc4ccccc4NC3=O)CC2)c2cc3ccccc3cn2)cc2cn[nH]c12 (stereo not drawn) [Example 50, N-(1-(isoquinolin-3-yl)-2-(7-methyl-1H-indazol-5-yl)ethyl)-4-(2-oxo-1,2-dihydroquinazolin-3(4H)-yl)piperidine-1-carboxamide]	< 10
Cc1cc(CC(OC(=O)N2CCC(N3Cc4ccccc4NC3=O)CC2)c2ccncc2)cc2cn[nH]c12 (stereo not drawn) [Example 57, 2-(7-Methyl-1H-indazol-5-yl)-1-(pyridin-4-yl)ethyl 4-(2-oxo-1,2-dihydroquinazolin-3(4H)-yl)piperidine-1-carboxylate]	100 to 1000
Cc1noc(C(Cc2cc(C)c3[nH]ncc3c2)NC(=O)N2CCC(N3Cc4ccccc4NC3=O)CC2)n1 (racemic) [Example 11, (±)-4-(2-Oxo-1,4-dihydro-2H-quinazolin-3-yl)-piperidine-1-carboxylic acid [2-(7-methyl-1H-indazol-5-yl)-1-(3-methyl-[1,2,4]oxadiazol-5-yl)-ethyl]-amide]	10 to 100
Cc1cccnc1C(CC(=O)N1CCC(N2Cc3ccccc3NC2=O)CC1)Cc1cc(C)c2[nH]ncc2c1 (racemic) [Example 25, (±)-3-(1-(4-(7-Methyl-1H-indazol-5-yl)-3-(3-methylpyridin-2-yl)butanoyl)piperidin-4-yl)-3,4-dihydroquinazolin-2(1H)-one]	< 10
Cc1cc(CC(OC(=O)N2CCC(N3Cc4ccccc4NC3=O)CC2)c2cc(C=O)ccn2)cc2cn[nH]c12 (racemic) [Example 47, (±)-1-(4-Formylpyridin-2-yl)-2-(7-methyl-1H-indazol-5-yl)ethyl 4-(2-oxo-1,2-dihydroquinazolin-3(4H)-yl)piperidine-1-carboxylate]	< 10
